Measurements reported in patent publication US8853215B2, “Derivatives of N-acyl-N′-phenylpiperazine useful (inter alia) for the prophylaxis or treatment of diabetes” (Takeda Pharmaceutical Company Limited, priority 2009, dated 2014).

Biological target: RBP4 (Mus musculus (Mouse), UniProt Q00724)
Assay: Single administration test in mice, plasma RBP4 by ELISA
Assay type: in vivo
Settings: male C57BL/6J or ICR mice, 50 mg/kg oral single dose, mean±SD
Method in brief: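 Male 6–12-week-old C57BL/6J or ICR mice on CE2 diet received compound orally at 50 mg/10 mL/kg in 0.5% methylcellulose (3–5 per group). Plasma sampled at 0, 4, 7 and 24 hr post-dose; RBP4 measured by sandwich ELISA (OD 450 nm) against mouse recombinant RBP4 standards, expressed as % of initial/Control.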

## CC(C)(C)c1ccccc1N1CCN(C(=O)C(=O)O)CC1 [Example 44, 2-[4-(2-tert-Butylphenyl)piperazin-1-yl]-2-oxoacetic acid]
0 hr (just before the administration)
  RBP4 (% of initial/Control) 0 hr: 100.0 ± 25.0 % of initial/Control
4 hr after administration
  RBP4 (% of initial/Control) 4 hr: 52.4 ± 2.8 % of initial/Control
7 hr after administration
  RBP4 (% of initial/Control) 7 hr: 50.2 ± 0.9 % of initial/Control
24 hr after administration
  RBP4 (% of initial/Control) 24 hr: 145.9 ± 19.6 % of initial/Control
